{"source": "patent US6207648A", "about": "“Methods of using cytochrome P450 reductase for the enhancement of P450-based anti-cancer gene therapy” (priority 1998, dated 2001)", "key": {"[1]": {"system": "9L/P450 gliosarcoma cells", "assay": "Growth inhibition assay of 9L/P450 cells, crystal violet (Example 2)", "format": "cell-based, rat", "conditions": "for inhibition at 1000 µM: Rattus norvegicus, 96 h, 1 mM, 4 days", "procedure": "Control cells for each cell line received no drug treatment. Relative cell number at the end of the experiment was determined by crystal violet staining as described below in \"Material and Methods\" of Example 2. Data (mean±SD, n=3) are based on the crystal violet absorbance in drug-treated plates as a percent of the corresponding drug-free controls.\nBriefly, culture dishes were washed once with phosphate buffered saline (PBS), stained for 10 minutes with crystal violet (1.25 g crystal violet (Sigma) dissolved in 500 ml containing 50 ml of 37% formaldehyde and 450 ml methanol), and then washed with PBS, twice for 20 minutes per wash. Absorbance values were measured in an SLT Spectra microtiter plate reader using a 595 nm filter. Background absorbance determined from wells containing culture media alone was subtracted from each value."}, "[2]": {"system": "9L/pBabe, 9L/2B6, 9L/hRED and 9L/2B6/hRED gliosarcoma cells", "assay": "Cytotoxicity assay of 9L cells transduced with human RED and/or P450 2B6, normoxic or hypoxic (Example 3)", "quoted_text": "Cells were seeded at 4000 cells/well in 48-well plates and treated with increasing concentrations of CPA for 4 days. Cell growth in comparison to drug-free controls was determined by crystal violet staining and is presented as mean±SD for n=3 replicates.\nFIG. 21 is a graph depicting the cytotoxic effects of the bioreductive drug TPZ toward 9L/pBabe control cells and 9L cells transduced with retroviruses encoding human RED and/or P450 2B6 under normoxic culture conditions. Cells were seeded at 4000 cells/well in 48-well plates and treated with increasing concentrations of TPZ for 4 days. Cell growth in comparison to drug-free controls was determined by crystal violet staining and is presented as mean±SD for n=3 replicates.\nFIG. 22 is a graph depicting the cytotoxicity of increasing concentrations of TPZ under hypoxic conditions (1% O2) toward 9L tumor cells transduced with retroviruses encoding P450 2B6 and/or human RED. 9L/pBabe cells served as controls. Cells were seeded at 4000 cells/well in 48-well plates and treated with increasing concentrations of TPZ for 4 days. Cell growth in comparison to drug-free controls was determined by crystal violet staining and is presented as mean±SD for n=3 replicates.\nFIGS. 24A, 24B and 24C are graphs depicting the cytotoxic effects of TPZ (5 or 10 μM, as indicated) in combination with increasing concentrations of CPA under normoxic culture conditions (19.6% O2, 5% CO2). The data shown were obtained using 9L/2B6/hRED cells (FIG. 24A), 9L/hRED cells (FIG. 24B) and 9L/pBabe (control) cells (FIG. 24C). Data were compared to the cytotoxicity of increasing concentrations of CPA alone (i. e., in the absence of TPZ) measured using the same pools of tumor cells. Cells were seeded at 4000 cells/well in 48-well plates and then treated with the indicated drug concentrations for 4 days. Cell growth in comparison to drug-free controls (i.e., in the absence of CPA and TPZ) was determined by crystal violet staining and is presented as mean±SD for n=3 replicates.\nFIGS. 25A, 25B and 25C are graphs depicting the cytotoxic effects of TPZ (0.5 or 1.5 μM, as indicated) in combination with increasing concentrations of CPA under hypoxic culture conditions (1% O2, 5% CO2). The data shown were obtained using 9L/2B6/hRED cells (FIG. 25A), 9L/hRED cells (FIG. 25B) and 9L/pBabe (control) cells (FIG. 25C). Data were compared to the cytotoxicity of increasing concentrations of CPA alone (i.e., in the absence of TPZ) measured using the same pools of tumor cells. Cells were seeded at 4000 cells/well in 48-well plates and then treated with the indicated drug concentrations for 4 days. Cell growth in comparison to drug-free controls (i.e., in the absence of CPA and TPZ) was determined by crystal violet staining and is presented as mean±SD for n=3 replicates.\nCytotoxicity assays: To evaluate the chemosensitivity of the P450- and P450/RED-expressing 9L tumor cells, cells were plated in triplicate at 4000 cells/well of a 48-well plate 18-24 hours prior to drug treatment. Cells were then treated with drugs (0 to 1 mM CPA or 0 to 50 μM TPZ, as indicated in each experiment) and placed in a tissue culture incubator maintained under hypoxic conditions (1% O2, 5% CO2, 94% N2) or under normoxic conditions (19.6% O2, 5% CO2, 75.4% N2) for a period of 4 days. 9L/pBabe cells, which were transduced with the empty retroviral plasmid pBabe-puro (see, Example 2), served as controls. Cells remaining after this time were quantitated using a crystal violet/alcohol-extraction assay, as described under Example 2. Data are presented as cell number relative to drug-free controls, mean±SD values for triplicate samples, unless indicated otherwise."}, "[3]": {"system": "9L gliosarcoma cells (parental, CYP2B1+, CYP2B1+ RED+++)", "assay": "In vitro colony formation cytotoxicity assay (Example 1)", "format": "cell-based, rat", "excerpt": "FIGS. 2A and 2C depict the results of a colony formation cytotoxicity assay.\nFIG. 3A depicts results from a colony formation cytotoxicity assay. […] The survival fraction is expressed as the number of colonies in each treatment group compared to the untreated control.\nCorresponding controls received no drug treatment."}, "[4]": {"system": "9L and 9L-R cells infected with Ad.CMV-2B1", "assay": "Adenovirus-mediated CYP2B1 gene transduction, CPA cytotoxicity (XTT)", "format": "cell-based, rat", "procedure": "FIGS. 8A and 8B are graphs depicting much greater cytotoxicity of adenovirus-mediated P450 gene transfer combined with CPA treatment in the case of 9L tumor cells engineered to express RED (FIG. 8B), compared to wild-type 9L cells that express basal RED activity (FIG. 8A). Cells were infected with Ad.CMV-2B1 at multiplicities of infection (MOI) ranging from 50-800, as indicated by the values in parenthesis on the right of each panel. Uninfected cells (UI) were used as controls. At 24 hours post infection, cells were replated at 500 cells per well in duplicate on 96-well plates. CPA was then added at concentrations up to 2 mM. After 5 days of incubation, cell survival was determined by an XTT colorimetric assay.\nAdenovirus-mediated CYP2B1 gene transduction: A recombinant adenovirus, Ad.CMV-2B1, carrying the CYP2B1 gene was constructed as described in Chen, L., et al., Cancer Res. 56:1331-1340 (1996). Large scale production of recombinant adenovirus was performed by growth in 293 cells followed by purification by double cesium gradient ultracentrifugation (Graham, F. L. and Prevec, L., \"Manipulation of Adenovirus Vectors\" in Methods in Molecular Biology:Gene Transfer and Expression Protocols, volume 7, E. J. Murray (ed.), The Human Press, Inc., Clifton, N.J., pages 109-127 (1991)). The titer of purified adenovirus was determined in a spectrophotometer at 260 nm and by plaque assays. Ad.CMV-2B1 was added to the cells plated on 30 mm diameter tissue culture plates at multiplicities of infection (MOI) as indicated in the figure legends. Twenty four hours after viral infection, the infected cells were trypsinized and replated at 500 cells/well onto 96 well tissue culture plates and treated with CPA. Four to seven days after CPA treatment, the number of surviving cells was determined using the XTT assay described above."}, "parental 9L cells": {"system": "parental 9L cells", "assay": "Limited dilution assay of conditioned media, bystander killing of parental 9L cells", "format": "cell-based, rat", "conditions": "PR11, PR7 vs P3, P17; 2 mM CPA 48 h", "procedure": "FIG. 5 is a graph depicting the effects of culture media from P450 and RED-transduced tumor cells incubated with CPA, on the survival of wild-type tumor cells. […] Parental 9L cells seeded in 30 mm plates (10^4 cells/well) in duplicate were cultured with 5-50% of condition media collected from each of the indicated cell lines (1.5×10^6) incubated with 2 mM CPA for 48 hours as described below in the \"Materials Methods\" section of Example 1. Five days after treatment, the number of viable parental 9L cells was determined using a hemacytometer based on trypan blue exclusion (mean for duplicate values).\nLimited dilution assay to evaluate bystander killing effect: 9L cells were seeded in 6-well plates at 1.5×10^6 cells/well for 12 hours, and treated with 2 mM CPA for 48 hours. The conditioned media from each well was collected, diluted 5-50% into fresh media as indicated for each experiment, and added into wells of a second set of 6-well plates pre-seeded with parental 9L cells (10^4 cells/well). Cultures were maintained for 5-7 days and colonies were scored as described for the clonogenic assay."}, "9L-lacZ cells": {"system": "9L-lacZ cells", "assay": "Bystander cytotoxicity in co-culture with lacZ-marked 9L cells", "format": "cell-based, rat", "conditions": "1 mM CPA, 5 days", "procedure": "CYP2B1^+ cells (FIG. 6A) and CYP2B1^+ RED^++ cells (FIG. 6C) were mixed with equal numbers of lacZ-marked 9L cells and cultured in the absence (FIGS. 6A and 6C) or in the presence (FIGS. 6B and 6D) of 1 mM CPA. Shown are 0.5% glutaraldehyde-fixed cells, 5 days after beginning drug treatment, stained with X-Gal for 4 hours to visualize the 9L-lacZ cells (dark staining)."}, "[5]": {"conditions": "in vivo; cited from earlier work"}}, "data": [{"smiles": "O=P1(N(CCCl)CCCl)NCCCO1", "note": "(stereo not shown) [CPA, cyclophosphamide]", "values": [{"measurement": "effect of P450 reductase overexpression on cytotoxicity", "setting": "[1]; 9L/2B6 and 9L/2C18-Met cells, FIG. 15", "value": "markedly increased the cytotoxicity"}, {"measurement": "cytotoxicity with RED transduction alone, in absence of P450", "setting": "[1]; 9L/RED, FIG. 15", "value": "did not confer CPA or IFA cytotoxicity"}, {"measurement": "sensitivity of P450-negative cells", "setting": "[1]; 9L/wt and 9L/pBabe, millimolar concentrations", "value": "insensitive"}, {"measurement": "inhibition at 1000 µM", "setting": "[1]; 9L/2B6", "value": "> 95", "unit": "%"}, {"measurement": "inhibition at 1000 µM", "setting": "[1]; 9L/2C9 and 9L/2C18-Thr", "value": "~60", "unit": "%"}, {"measurement": "inhibition at 1000 µM", "setting": "[1]; 9L/2C19 and 9L/2C18-Met", "value": "75 to 85", "unit": "%"}, {"measurement": "inhibition at 1000 µM", "setting": "[1]; 9L/3A4", "value": "~90", "unit": "%"}, {"measurement": "efficiency of P450 genes in chemosensitizing 9L cells to CPA", "setting": "[1]; six human P450 genes", "value": 2, "unit": "B6>2C18-Met~3A4>others"}, {"measurement": "effect of hypoxia on CPA cytotoxicity toward 9L/2B6/RED or 9L/2B6 cells", "setting": "[2]; 1% O2", "value": "does not significantly alter the cytotoxicity"}, {"measurement": "CPA cytotoxicity on retroviral transduction of hRED", "setting": "[2]; 9L/2B6/hRED vs 9L/2B6, normoxic", "value": "large increase in CPA cytotoxicity"}, {"measurement": "CPA cytotoxicity in 9L/hRED and 9L/pBabe cells", "setting": "[2]; normoxic", "value": "No CPA cytotoxicity was observed"}, {"measurement": "sensitization of 9L cells to CPA by RED overexpression alone", "setting": "[3]; line 9L-R (RED without CYP2B1)", "value": "did not sensitize 9L tumor cells"}, {"measurement": "cytotoxic response of CYP2B1+ cells on RED overexpression", "setting": "[3]; lines PR11, PR7 vs P3, P17, colony formation assay", "value": "significantly enhanced the cytotoxic response"}, {"measurement": "CPA sensitivity of cells infected with Ad.CMV-2B1", "setting": "[4]; MOI 50 to 800, most striking in RED overexpressing cells", "value": "acquired CPA sensitivity"}, {"measurement": "enhancement of drug cytotoxicity in Ad.CMV-2B1-infected cells at higher viral multiplicities", "setting": "[4]; RED-overexpressing 9L cells", "value": "further enhanced"}, {"measurement": "CPA sensitivity of 9L cells infected with lacZ adenovirus", "setting": "[4]; control experiment", "value": "did not sensitize the cells"}, {"measurement": "enhancement of drug cytotoxicity in Ad.CMV-2B1-infected cells at higher viral multiplicities", "setting": "[4]; parental 9L cells, MOI above 200", "value": "not further enhanced"}, {"measurement": "cytotoxicity of conditioned media of CYP2B1+ RED+++ vs CYP2B1+ cells incubated with CPA", "setting": "parental 9L cells", "value": "substantially more cytotoxic"}, {"measurement": "bystander cytotoxicity of CYP2B1+ 9L cells toward CYP2B1- 9L cells", "setting": "9L-lacZ cells", "value": "substantial, albeit incomplete, bystander cytotoxicity"}, {"measurement": "bystander killing of 9L/lacZ cells by co-culture with CYP2B1+ RED+++ cells", "setting": "9L-lacZ cells", "value": "near complete killing"}, {"measurement": "elimination of CYP2B1+ and CYP2B1+ RED+++ cells", "setting": "9L-lacZ cells; unstained cells", "value": "essentially eliminated"}, {"measurement": "side effects of systemic distribution of drug and alkylating metabolites", "setting": "[5]", "value": "cardiotoxicity, renal toxicity, marrow suppression, and neurotoxoxicity"}]}]}
